Measurements reported in patent publication US20230295201A1 (Gilead Sciences, Inc., priority 2020, published 2023).
Read-outs that look alike come from different tables or passages of the source.

What was measured:
Assay type in all cases: cell-based
[1] = system: RSV strain A2; test: RSV HEp-2 EC50 (infectious cytopathic cell protection assay); conditions: HEp-2 cells, RSV A2, 4 days, read-out: RSV HEp-2 EC50
How it was run: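 Percent inhibition of RSV-induced cytopathic effect came from remaining cell viability (CellTiter-Glo luminescence) after 4 days at 37° C. Compounds in 3-fold serial dilutions were exposed to an infectious mix of titered A2 virus and HEp-2 cells at 50,000/ml, with 0% and 100% inhibition control standards.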

[2] = system: RSV A2; test: RSV NHBE EC50 (RSV A2 antiviral assay in normal human bronchial epithelial cells); conditions: NHBE cells, RSV A2, 4 days, read-out: RSV NHBE EC50
[3] = system: HRV16; test: HRV16 HELA EC50 (cytopathic effect in H1-HeLa cells)
How it was run: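 Read-out is luminescent cell viability (CellTiter-Glo) after 96 h of infection at 33 °C, scaled between uninfected and infected-untreated wells. Before infection with titrated virus, compounds went onto H1-HeLa cells as triplicate 3-fold dilution series.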

[4] = system: DENV2 replicon; test: DENV-2 Huh-7 Rep EC50 (replicon luminescence); conditions: read-out: DENV-2 Huh-7 Rep EC50
How it was run: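 EC50 derived from luminescence dose-response, normalised to DMSO-only 0% inhibition wells, after 1.5 h with EnduRen substrate. Compounds were first exposed for 48 h at 37° C to DENV2 replicon Huh-7 cells (5,000/well).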

[5] = human respiratory syncytial virus, HEp-2, 96 h
[6] = human respiratory syncytial virus, NHBE, 96 h
[7] = 96 h, H1-HeLa cells, 33° C., read-out: HRV16 HELA EC50
[8] = Dengue virus, DENV2, Huh-7, 48 h, Huh-7 replicon cells, 48 hours
[9] = human respiratory syncytial virus, 96 h
[10] = H1-HeLa cells, 96 h, 33° C.; read-out: HRV16 HELA EC50
[11] = Dengue virus, DENV2, Huh-7, 48 h

Row | Structure (SMILES) | EC50 [1, 5] [µM] | EC50 [2, 6] [µM] | EC50 [3, 7] [µM] | EC50 [4, 8] [µM] | EC50 [1, 9] [µM] | EC50 [2, 9] [µM] | EC50 [3, 10] [µM] | EC50 [4, 11] [µM] | also measured
1 | C[C@H](NP(=O)(OC[C@@]1(C#N)O[C@@H](c2ccc3c(N)ncnn23)[C@H](O)[C@@H]1O)Oc1ccccc1)C(=O)OCC1CCN(CC(F)(F)F)CC1 (stereo partly drawn) [Example 31, (1-(2,2,2-trifluoroethyl)piperidin-4-yl)methyl ((((2R,3S,4R,5S)-5-(4-aminopyrrolo[2,1-f][1,2,4]triazin-7-yl)-2-cyano3,4-dihydroxytetrahydrofuran-2-yl)methoxy)(phenoxy)phosphoryl)alaninate] | 0.334 | 0.258 | 2.5 | 96 |  |  |  |  | 
2 | CCN1CCC(OC(=O)[C@H](C)NP(=O)(OC[C@@]2(C#N)O[C@@H](c3ccc4c(N)ncnn34)[C@H](O)[C@@H]2O)Oc2ccccc2)C(F)(F)C1 (stereo partly drawn) [Example 32, 1-ethyl-3,3-difluoropiperidin-4-yl ((((2R,3S,4R,5S)-5-(4-aminopyrrolo[2,1-f][1,2,4]triazin-7-yl)-2-cyano-3,4-dihydroxytetrahydrofuran-2-yl)methoxy)(phenoxy)phosphoryl)-L-alaninate] | 3.44 | > 3.12 | 9.95 | > 100 |  |  |  |  | 
3 | C[C@H](NP(=O)(OC[C@@]1(C#N)O[C@@H](c2ccc3c(N)ncnn23)[C@H](O)[C@@H]1O)Oc1ccccc1)C(=O)O[C@H]1CC[C@H](N)CC1 (stereo partly drawn) [Example 33, (1r,4S)-4-aminocyclohexyl ((((2R,3S,4R,5S)-5-(4-aminopyrrolo[2,1-f][1,2,4]triazin-7-yl)-2-cyano-3,4-dihydroxytetrahydrofuran-2-yl)methoxy)(phenoxy)phosphoryl)-L-alaninate] | 1.91 | 2.68 | 27 | > 50 |  |  |  |  | 
4 | CC(C)OC(=O)[C@H](C)NP(=O)(N[C@@H](C)C(=O)OC(C)C)OC[C@@]1(C#N)O[C@@H](c2ccc3c(N)ncnn23)[C@H](O)[C@@H]1O [Example 34] |  |  |  |  | 14 | 2.84 | > 50 | > 50 | 
5 | CCOC(=O)[C@H](C)NP(=O)(N[C@@H](C)C(=O)OCC)OC[C@@]1(C#N)O[C@@H](c2ccc3c(N)ncnn23)[C@H](O)[C@@H]1O [Example 35, ((2R,3S,4R,5S)-5-(4-aminopyrrolo[2,1-f][1,2,4]triazin-7-yl)-2-cyano-3,4-dihydroxytetrahydrofuran-2-yl)methyl bis-ethyl L-alaninate phosphate] |  |  |  |  | 4.07 | 1.31 | 29.6 | > 50 | 
6 | C[C@H](NP(=O)(N[C@@H](C)C(=O)OCC1CCC1)OC[C@@]1(C#N)O[C@@H](c2ccc3c(N)ncnn23)[C@H](O)[C@@H]1O)C(=O)OCC1CCC1 [Example 36, (2R,3S,4R,5S)-5-(4-aminopyrrolo[2,1-f][1,2,4]triazin-7-yl)-2-cyano-3,4-dihydroxytetrahydrofuran-2-yl)methyl bis-cyclobutylmethyl L-alaninate phosphate] |  |  |  |  | 1.44 | 0.312 | 10.7 | > 50 | 
7 | COC(=O)[C@H](C)NP(=O)(N[C@@H](C)C(=O)OC)OC[C@@]1(C#N)O[C@@H](c2ccc3c(N)ncnn23)[C@H](O)[C@@H]1O [Example 38] |  |  |  |  | 3.51 | 3.98 | 20.9 | > 50 | 
8 | COC(=O)[C@H](C)NP(=O)(OC[C@@]1(C#N)O[C@@H](c2ccc3c(N)ncnn23)[C@H](O)[C@@H]1O)Oc1ccccc1 (stereo partly drawn) [Example 39, methyl ((((2R,3S,4R,5S)-5-(4-aminopyrrolo[2,1-f][1,2,4]triazin-7-yl)-2-cyano-3,4-dihydroxytetrahydrofuran-2-yl)methoxy)(phenoxy)phosphoryl)-L-alaninate] | 0.166 | 0.569 | 1.08 | > 50 |  |  |  |  | 
9 | COCCOP(=O)(N[C@@H](C)C(=O)OC(C)C)OC[C@@]1(C#N)O[C@@H](c2ccc3c(N)ncnn23)[C@H](O)[C@@H]1O (stereo partly drawn) [Example 41, isopropyl ((((2R,3S,4R,5S)-5-(4-aminopyrrolo[2,1-f][1,2,4]triazin-7-yl)-2-cyano-3,4-dihydroxytetrahydrofuran-2-yl)methoxy)(2-methoxyethoxy)phosphoryl)-L-alaninate] |  |  |  |  | > 50 | ≥ 5 | > 50 | > 50 | 
10 | CC(C)OC(=O)[C@H](C)NP(=O)(OCCS(C)(=O)=O)OC[C@@]1(C#N)O[C@@H](c2ccc3c(N)ncnn23)[C@H](O)[C@@H]1O (stereo partly drawn) [Example 42, isopropyl ((((2R,3S,4R,5S)-5-(4-aminopyrrolo[2,1-f][1,2,4]triazin-7-yl)-2-cyano-3,4-dihydroxytetrahydrofuran-2-yl)methoxy)(2-(methylsulfonyl)ethoxy)phosphoryl)-L-alaninate] |  |  |  |  | 25.4 | ≥ 5 | > 50 | 39.2 | 
11 | CCCOC(=O)[C@H](C)N[P@](=O)(OC[C@@]1(C#N)O[C@@H](c2ccc3c(N)ncnn23)[C@H](O)[C@@H]1O)Oc1ccccc1 [Example 45, propyl ((S)-(((2R,3S,4R,5S)-5-(4-aminopyrrolo[2,1-f][1,2,4]triazin-7-yl)-2-cyano-3,4-dihydroxytetrahydrofuran-2-yl)methoxy)(phenoxy)phosphoryl)-L-alaninate] | 0.055 | 0.248 | 0.375 | 9.66 |  |  |  |  | 
12 | C[C@H](NP(=O)(OC[C@@]1(C#N)O[C@@H](c2ccc3c(N)ncnn23)[C@H](O)[C@@H]1O)Oc1ccccc1)C(=O)OCC1COC1 (stereo partly drawn) [Example 49, oxetan-3-ylmethyl ((((2R,3S,4R,5S)-5-(4-aminopyrrolo[2,1-f][1,2,4]triazin-7-yl)-2-cyano-3,4-dihydroxytetrahydrofuran-2-yl)methoxy)(phenoxy)phosphoryl)-L-alaninate] | 1.08 | 2.43 | 8.72 | > 50 |  |  |  |  | 
13 | C[C@H](NP(=O)(OC[C@@]1(C#N)O[C@@H](c2ccc3c(N)ncnn23)[C@H](O)[C@@H]1O)Oc1ccccc1)C(=O)OC1CCC1 (stereo partly drawn) [Example 51] |  |  |  |  |  |  | 0.357 |  | EC50 [1]: 0.09 µM; EC50 [2]: > 1.24 µM; EC50 ([4]; Huh-7 replicon cells, 48 hours): 9.21 µM
14 | COCCOc1ccc(OP(=O)(N[C@@H](C)C(=O)OC(C)C)OC[C@@]2(C#N)O[C@@H](c3ccc4c(N)ncnn34)[C@H](O)[C@@H]2O)cc1 (stereo partly drawn) [Example 53] | 2.36 |  | 15.5 | > 50 |  |  |  |  | EC50 ([2]; human respiratory syncytial virus, NHBE, in Homo sapiens, 96 h): ≥ 5 µM
15 | C[C@H](NP(=O)(OC[C@@]1(C#N)O[C@@H](c2ccc3c(N)ncnn23)[C@H](O)[C@@H]1O)Oc1ccccc1)C(=O)OC1CCOCC1 (stereo partly drawn) [Example 55, tetrahydro-2H-pyran-4-yl ((((2R,3S,4R,5S)-5-(4-aminopyrrolo[2,1-f][1,2,4]triazin-7-yl)-2-cyano-3,4-dihydroxytetrahydrofuran-2-yl)methoxy)(phenoxy)phosphoryl)-L-alaninate] | 0.57 | 4.29 | 6.91 | > 50 |  |  |  |  | 
16 | CCC(CC)COC(=O)[C@H](CCCCNC(=O)OCc1ccccc1)NP(=O)(OC[C@@]1(C#N)O[C@@H](c2ccc3c(N)ncnn23)[C@H](O)[C@@H]1O)Oc1ccccc1 (stereo partly drawn) [Example 79, 2-ethylbutyl N2-((((2R,3S,4R,5S)-5-(4-aminopyrrolo[2,1-f][1,2,4]triazin-7-yl)-2-cyano-3,4-dihydroxytetrahydrofuran-2-yl)methoxy)(phenoxy)phosphoryl)-N6-((benzyloxy)carbonyl)-L-lysinate] | > 50 | > 5 | > 34.8 | 40.2 |  |  |  |  | 
17 | CC(C)OC(=O)[C@H](Cc1ccccc1)NP(=O)(OC[C@@]1(C#N)O[C@@H](c2ccc3c(N)ncnn23)[C@H](O)[C@@H]1O)Oc1ccccc1 (stereo partly drawn) [Example 80, (2S)-isopropyl 2-(((((2R,3S,4R,5S)-5-(4-aminopyrrolo[2,1-f][1,2,4]triazin-7-yl)-2-cyano-3,4-dihydroxytetrahydrofuran-2-yl)methoxy)(phenoxy)phosphoryl)amino)-3-phenylpropanoate] | 3.83 | 4.7 | 8.96 | > 50 |  |  |  |  | 
18 | CCC(CC)COC(=O)[C@H](Cc1ccccc1)NP(=O)(OC[C@@]1(C#N)O[C@@H](c2ccc3c(N)ncnn23)[C@H](O)[C@@H]1O)Oc1ccccc1 (stereo partly drawn) [Example 81, (2S)-2-ethylbutyl 2-(((((2R,3S,4R,5S)-5-(4-aminopyrrolo[2,1-f][1,2,4]triazin-7-yl)-2-cyano-3,4-dihydroxytetrahydrofuran-2-yl)methoxy)(phenoxy)phosphoryl)amino)-3-phenylpropanoate] | 3.57 | 2.65 | 3.37 | 38.9 |  |  |  |  | 
